Reference: patent publication US20220056019A1, “FARNESOID X RECEPTOR AGONISTS AND USES THEREOF” (Metacrine, Inc., priority 2018, published 2022)

Target: T1, hFXR (Homo sapiens, UniProt Q96RI1)
T1 construct: expressed in transfected cells; host or cells: CV-1 cells
T1 sequence (Q96RI1 1-486): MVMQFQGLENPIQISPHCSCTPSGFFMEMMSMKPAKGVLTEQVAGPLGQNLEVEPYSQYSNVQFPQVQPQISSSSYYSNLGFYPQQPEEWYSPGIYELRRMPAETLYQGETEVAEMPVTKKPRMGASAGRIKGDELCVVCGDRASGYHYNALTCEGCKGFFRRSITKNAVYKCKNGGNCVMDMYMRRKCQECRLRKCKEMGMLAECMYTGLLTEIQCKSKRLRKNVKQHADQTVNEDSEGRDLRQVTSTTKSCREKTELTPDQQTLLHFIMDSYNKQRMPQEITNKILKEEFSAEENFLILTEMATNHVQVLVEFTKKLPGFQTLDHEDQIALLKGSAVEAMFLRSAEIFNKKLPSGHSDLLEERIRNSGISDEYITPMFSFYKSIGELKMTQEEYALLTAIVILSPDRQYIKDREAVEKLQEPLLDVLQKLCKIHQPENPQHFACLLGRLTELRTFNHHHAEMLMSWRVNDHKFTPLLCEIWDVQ
T1 sequence (P19793 1-462 partner): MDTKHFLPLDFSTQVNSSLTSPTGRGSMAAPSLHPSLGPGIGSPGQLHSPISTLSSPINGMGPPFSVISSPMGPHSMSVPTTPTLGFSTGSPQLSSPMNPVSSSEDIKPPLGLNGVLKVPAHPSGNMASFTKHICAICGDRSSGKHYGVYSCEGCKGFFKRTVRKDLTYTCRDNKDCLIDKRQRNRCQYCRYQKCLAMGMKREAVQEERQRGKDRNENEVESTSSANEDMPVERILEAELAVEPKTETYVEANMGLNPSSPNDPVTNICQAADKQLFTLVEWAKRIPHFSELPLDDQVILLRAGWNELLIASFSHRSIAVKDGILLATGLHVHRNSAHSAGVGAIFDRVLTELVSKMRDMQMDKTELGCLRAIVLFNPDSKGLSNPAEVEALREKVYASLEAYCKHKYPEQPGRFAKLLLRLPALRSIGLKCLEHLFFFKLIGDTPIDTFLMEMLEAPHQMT
Test: In Vitro FXR Assay (TK): TK-ECRE-luc reporter in transfected CV-1 cells
Type: cell-based
Details: 18 hrs incubation, luminescence
Protocol: Example B-1: In Vitro FXR Assay (TK)
CV-1 cells were seeded at a density of 2,000,000 cells in a T175 flask with DMEM+10% charcoal double-stripped FBS and incubated at 37° C. in 5% CO2 for 18 h (O/N).
After 18 h of incubation, the medium in the T175 flask was changed with fresh DMEM+10% charcoal super-stripped serum. In a polypropylene tube, 2500 μL OptiMEM (Life Technologies, Cat #31985-062) was combined with expression plasmids for hFXR, hRXR, TK-ECRE-luc and pCMX-YFP. The tube was then briefly vortexed and incubated at room temperature for 5 minutes. Transfection reagent (X-tremeGENE HP from Roche, Cat #06 366 236 001) was added to the OptiMEM/plasmid mixture vortexed and incubated at room temperature for 20 minutes. Following incubation, the transfection reagent/DNA mixture complex was added to cells in the T175 flask and the cells were incubated at 37° C. in 5% CO2 for 18 h (O/N).
Compounds were serially diluted in DMSO and added to transfected CV-1 cells. The cells were then incubated for 18 hrs. The next day cells were lysed and examined for luminescence.

Structure (SMILES)	EC50
COCCN(C)C(=O)O[C@H]1CC[C@H](C(=O)N(CC23CCC(c4ccc(OC)c(C)c4)(CC2)CC3)c2cc(-c3cnn(C(C)C)c3)ccn2)CC1 [Compound 4.56, 4-((4-(1-Isopropyl-1H-pyrazol-4-yl)pyridin-2-yl) ((4-(4-methoxy-3-methylphenyl)bicyclo [2.2.2]octan-1-yl)methyl)carbamoyl)cyclohexyl (2-methoxyethyl)(methyl) trans-carbamate]	≤ 50 nM
COc1ccc([C@H]2CC[C@H](CN(c3cc(-c4cnc(C5CC5)o4)ccn3)C(=O)[C@H]3CC[C@H](OC(=O)N4CC(O)C4)CC3)CC2)cc1C [Compound 2.01, trans-4-((4-(2-Cyclopropyloxazol-5-yl)pyridin-2-yl)((trans-4-(4-methoxy-3-methylphenyl)cyclohexyl)methyl)carbamoyl)cyclohexyl 3-hydroxyazetidine-1-carboxylate]	≤ 50 nM
COc1ccc(C23CCC(CN(c4cc(-c5cnn(C(C)C)c5)c(F)cn4)C(=O)[C@H]4CC[C@H](OC(=O)N5CC(CS(C)(=O)=O)C5)CC4)(CC2)CC3)cc1C [Compound 25.07, 4-((5-Fluoro-4-(1-isopropyl-1H-pyrazol-4-yl)pyridin-2-yl)((4-(4-methoxy-3-methylphenyl)bicyclo[2.2.2]octan-1-yl)methyl)carbamoyl)cyclohexyl trans-3-((methylsulfonyl)methyl)azetidine-1-carboxylate]	≤ 50 nM
COc1ccc([C@H]2CC[C@H](CN(c3cccc(-c4cnn(C(C)C)c4)c3)C(=O)[C@H]3CC[C@H](NC(=O)C4CC(O)C4)CC3)CC2)cc1C (stereo partly drawn) [Compound 14.02, (1r,4r)-4-(3-Hydroxycyclobutanecarboxamido)-N-(3-(1-isopropyl-1H-pyrazol-4-yl)phenyl)-N-((trans-4-(4-methoxy-3-methylphenyl)cyclohexyl)methyl) cyclohexanecarboxamide]	50 to 1000 nM
COc1ccc(C23CCC(CN(c4cc(-c5cnn(C(C)C)c5)ccn4)C(=O)[C@H]4CC[C@H](OC(=O)NC(C)(C)CO)CC4)(CC2)CC3)cc1C [Compound 4.46, 4-((4-(1-Isopropyl-1H-pyrazol-4-yl)pyridin-2-yl) ((4-(4-methoxy-3-methylphenyl)bicyclo [2.2.2]octan-1-yl)methyl)carbamoyl)cyclohexyl trans-(1-hydroxy-2-methylpropan-2-yl) carbamate]	≤ 50 nM
COc1ccc([C@H]2CC[C@](F)(CN(c3cccc(-c4cnn(C(C)C)c4)c3)C(=O)[C@H]3CC[C@H](OC(=O)N4CC(O)C4)CC3)CC2)cc1C [Compound 25.01, 4-((((trans)-1-Fluoro-4-(4-methoxy-3-methylphenyl)cyclohexyl)methyl)(3-(1-isopropyl-1H-pyrazol-4-yl)phenyl)carbamoyl)(trans-cyclohexyl) 3-hydroxyazetidine-1-carboxylate]	≤ 50 nM
COc1ccc(C23CCC(CN(c4cc(-c5cnn(C6CC[S+]([O-])CC6)c5)ccn4)C(=O)[C@H]4CC[C@H](OC(=O)N5CC(O)C5)CC4)(CC2)CC3)cc1C (stereo partly drawn) [Compound 26.22, 4-(((4-(4-Methoxy-3-methylphenyl)bicyclo[2.2.2]octan-1-yl)methyl)(4-(1-(1-oxidotetrahydro-2H-thiopyran-4-yl)-1H-pyrazol-4-yl)pyridin-2-yl)carbamoyl)cyclohexyl trans-3-hydroxyazetidine-1-carboxylate]	1000 to 10000 nM
COc1ccc(C23CCC(CN(c4cc(-c5cnn(C(C)C)c5)ccn4)C(=O)[C@H]4CC[C@H](OC(=O)NC5COC5)CC4)(CC2)CC3)cc1C [Compound 4.13, 4-((4-(1-Isopropyl-1H-pyrazol-4-yl)pyridin-2-yl)((4-(4-methoxy-3-methylphenyl)bicyclo [2.2.2]octan-1-yl)methyl)carbamoyl)cyclohexyl trans-oxetan-3-ylcarbamate]	≤ 50 nM
COc1ccc(C23CCC(CN(c4cc(-c5coc(C(C)C)n5)ccn4)C(=O)[C@H]4CC[C@H](OC(=O)NCCO)CC4)(CC2)CC3)cc1C [Compound 22, 4-((4-(2-Isopropyloxazol-4-yl)pyridin-2-yl)((4-(4-methoxy-3-methylphenyl)bicyclo[2.2.2]octan-1-yl)methyl)carbamoyl)cyclohexyl (2-hydroxyethyl)trans-carbamate]	≤ 50 nM
COc1ccc([C@H]2CC[C@H](CN(c3cccc(-c4cnn(C(C)C)c4)c3)C(=O)[C@H]3CC[C@H](CNC(=O)OC(C)C)CC3)CC2)cc1C [Compound 12.05, Isopropyl (((trans)-4-((3-(1-isopropyl-1H-pyrazol-4-yl)phenyl)(((trans)-4-(4-methoxy-3-methylphenyl)cyclohexyl)methyl)carbamoyl)cyclohexyl)methyl)car-bamate]	50 to 1000 nM
COc1ccc(C23CCC(CN(c4cncc(-c5cnn(C6(C)CCC6)c5)n4)C(=O)[C@H]4CC[C@H](OC(=O)N5CC(O)C5)CC4)(CC2)CC3)cc1C [Compound 25.27, 4-(((4-(4-Methoxy-3-methylphenyl)bicyclo[2.2.2]octan-1-yl)methyl)(6-(1-(1-methylcyclobutyl)-1H-pyrazol-4-yl)pyrazin-2-yl)carbamoyl)cyclohexyl trans-3-hydroxyazetidine-1-carboxylate]	≤ 50 nM
COC(=O)CCC(=O)N[C@H]1CC[C@H](C(=O)N(C[C@H]2CC[C@H](c3ccc(OC)c(C)c3)CC2)c2cccc(-c3cnn(C(C)C)c3)c2)CC1 [Compound 10.04, Methyl 4-((trans-4-((3-(1-isopropyl-1H-pyrazol-4-yl)phenyl)((trans-4-(4-methoxy-3-methylphenyl)cyclohexyl)methyl)carbamoyl)cyclohexyl)amino)-4-oxobutanoate]	50 to 1000 nM
CCOC1CN(C(=O)O[C@H]2CC[C@H](C(=O)N(CC34CCC(c5ccc(OC)c(C)c5)(CC3)CC4)c3cc(-c4cnn(C(C)C)c4)ccn3)CC2)C1 [Compound 4.48, 4-((4-(1-Isopropyl-1H-pyrazol-4-yl)pyridin-2-yl) ((4-(4-methoxy-3-methylphenyl)bicyclo [2.2.2]octan-1-yl)methyl)carbamoyl)(trans-cyclohexyl) 3-ethoxyazetidine-1-carboxylate]	≤ 50 nM
COc1ccc([C@H]2CC[C@H](CN(c3cc(-c4cnn(C(C)C)c4)ccn3)C(=O)[C@H]3CC[C@H](OC(=O)N4CCNCC4)CC3)CC2)cc1C [Compound 2.15, trans-4-((4-(1-Isopropyl-1H-pyrazol-4-yl)pyridin-2-yl) ((trans-4-(4-methoxy-3-methylphenyl)cyclohexyl)methyl)carbamoyl) cyclohexyl piperazine-1-carboxylate]	50 to 1000 nM
COc1ccc([C@H]2CC[C@H](CN(c3cccc(-c4cnn(C(C)C)c4)c3)C(=O)[C@H]3CC[C@H](NC(=O)CC4CCOCC4)CC3)CC2)cc1C [Compound 10.03, trans-N-(3-(1-Isopropyl-1H-pyrazol-4-yl)phenyl)-N-((trans-4-(4-methoxy-3-methylphenyl)cyclohexyl)methyl)-4-(2-(tetrahydro-2H-pyran-4-yl)acetamido)cyclohexanecarboxa-mide]	50 to 1000 nM
COc1ccc(C23CCC(CN(c4cc(-c5cnn(C(C)C)c5)ccn4)C(=O)[C@H]4CC[C@H](OC(=O)N5CC(O)C5)CC4)(CC2)CC3)cc1Cl [Compound 4.16, 4-(((4-(3-Chloro-4-methoxyphenyl)bicyclo [2.2.2]octan-1-yl)methyl) (4-(1-isopropyl-1H-pyrazol-4-yl)pyridin-2-yl)carbamoyl)cyclohexyl hydroxyazetidine-1-carboxylate]	≤ 50 nM
COc1ccc([C@H]2CC[C@H](CN(c3cc(-c4coc(C5CC5)n4)ccn3)C(=O)[C@H]3CC[C@H](OC(=O)NC4COC4)CC3)CC2)cc1C [Compound 2.53, trans-4-((4-(2-Cyclopropyloxazol-4-yl)pyridin-2-yl)(((trans)-4-(4-methoxy-3-methylphenyl)cyclohexyl)methyl)carbamoyl)cyclohexyl oxetan-3-ylcarbamate]	≤ 50 nM
